Patent EP0942911B1, “BENZOPYRANOPYRROLE AND BENZOPYRANOPYRIDINE ALPHA-1 ADRENERGIC COMPOUNDS” (Abbott Laboratories, priority 1996, dated 1998)
Structures can show the parent of a compound that is named as a salt. Where two headings read alike, the source gives them in different places. Blank lines part the entries; values can stand above or below the compound they belong to.

Legend:
α-1a adrenoreceptor [1] = target: T1, α-1a adrenoreceptor (Bos taurus, UniProt P18130); assay: biochemical; type: binding, bovine; conditions: read-out: Radioligand Binding (Ki, nM) 1a (Bovine)
T1 sequence (P18130 1-466): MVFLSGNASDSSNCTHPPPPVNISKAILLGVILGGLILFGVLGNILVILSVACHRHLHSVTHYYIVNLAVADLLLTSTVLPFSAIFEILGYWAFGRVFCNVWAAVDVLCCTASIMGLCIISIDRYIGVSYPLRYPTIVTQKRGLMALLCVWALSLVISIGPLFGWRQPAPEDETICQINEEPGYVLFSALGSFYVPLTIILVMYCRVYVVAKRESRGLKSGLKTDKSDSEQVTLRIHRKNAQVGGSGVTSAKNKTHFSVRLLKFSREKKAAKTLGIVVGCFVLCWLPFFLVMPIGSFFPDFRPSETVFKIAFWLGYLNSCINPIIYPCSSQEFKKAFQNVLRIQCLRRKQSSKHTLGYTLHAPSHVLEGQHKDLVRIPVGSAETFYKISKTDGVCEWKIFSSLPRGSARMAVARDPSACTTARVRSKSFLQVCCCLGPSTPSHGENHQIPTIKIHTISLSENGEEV
Summary of the method: (§1)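 LTK mouse fibroblasts stably transfected with α-1a, α-1b or α-1d cDNA → roller-bottle culture 5 days at 37 °C → membranes in 50 mM Tris-HCl, stored at -70 °C → radioligand binding → scintillation counting.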

α-1 Adrenoceptors = assay: Functional antagonism in rat aorta (method not described); type: cell-based
α-1B adrenoreceptor [2] = target: T2, α-1B adrenoreceptor (Rattus norvegicus, UniProt P15823); assay: cell-based; conditions: phenylephrine-induced contraction; Schild plot
T2 construct: from tissue; host or cells: rat spleen
T2 sequence (P15823 1-515): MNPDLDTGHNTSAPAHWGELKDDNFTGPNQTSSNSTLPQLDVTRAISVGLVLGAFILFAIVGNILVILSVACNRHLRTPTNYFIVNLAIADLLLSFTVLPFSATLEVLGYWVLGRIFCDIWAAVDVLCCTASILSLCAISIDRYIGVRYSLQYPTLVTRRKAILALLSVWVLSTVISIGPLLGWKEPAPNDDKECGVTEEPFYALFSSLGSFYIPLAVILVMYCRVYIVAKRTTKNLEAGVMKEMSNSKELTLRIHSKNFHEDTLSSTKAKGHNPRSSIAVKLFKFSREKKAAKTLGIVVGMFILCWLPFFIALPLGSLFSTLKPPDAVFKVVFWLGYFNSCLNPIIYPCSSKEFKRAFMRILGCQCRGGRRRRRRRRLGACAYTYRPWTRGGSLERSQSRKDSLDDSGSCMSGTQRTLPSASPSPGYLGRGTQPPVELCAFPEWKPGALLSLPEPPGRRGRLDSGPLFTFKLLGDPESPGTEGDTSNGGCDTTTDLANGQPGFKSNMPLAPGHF
Description: (§2) Functional assays indicative of pharmacologically defined α-1 adrenoreceptors were used to further characterize compounds. Inhibition of phenylephrine (PE)-induced contraction of canine prostate smooth muscle can be correlated with α-1A adrenoreceptor activation. […] For each of these models, agonist dose response curves were repeated against increasing concentrations of test agent to derive a Schild plot [log ([…]) against log (molarity of test agent)] to determine the pA2.

α-1d adrenoreceptor = target: T3, α-1d adrenoreceptor (Rattus norvegicus, UniProt P23944); assay: biochemical; type: binding; conditions: read-out: Radioligand Binding (Ki, nM) 1d (Rat)
T3 sequence (P23944 1-561): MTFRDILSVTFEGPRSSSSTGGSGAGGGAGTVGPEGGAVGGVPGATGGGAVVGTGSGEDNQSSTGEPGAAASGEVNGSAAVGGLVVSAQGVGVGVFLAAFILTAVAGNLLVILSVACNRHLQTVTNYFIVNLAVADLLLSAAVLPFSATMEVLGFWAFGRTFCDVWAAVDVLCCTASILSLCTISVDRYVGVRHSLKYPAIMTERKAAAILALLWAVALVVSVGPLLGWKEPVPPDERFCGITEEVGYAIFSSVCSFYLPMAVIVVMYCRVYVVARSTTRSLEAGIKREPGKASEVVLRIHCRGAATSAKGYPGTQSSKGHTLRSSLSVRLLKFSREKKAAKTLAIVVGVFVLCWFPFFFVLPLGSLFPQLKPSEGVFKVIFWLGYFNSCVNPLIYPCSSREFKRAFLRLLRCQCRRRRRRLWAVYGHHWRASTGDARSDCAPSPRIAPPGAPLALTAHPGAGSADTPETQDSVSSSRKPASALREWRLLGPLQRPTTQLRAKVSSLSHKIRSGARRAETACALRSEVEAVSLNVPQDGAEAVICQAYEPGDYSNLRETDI
Summary of the method: as §1

α-1A adrenoreceptor [3] = assay: Functional antagonism: inhibition of PE-induced contraction of canine prostate strips (Schild plot); type: cell-based; conditions: phenylephrine-induced contraction
Description: Canine prostate strips were used in vitro as previously described (Hieble, J.P., Boyce, A.J. and Caine, M., Fed. Proc., 45: 2609-2614 (1986)), to determine antagonist potencies against phenylephrine-induced contractions.
as §2

[4] = target: T4, α-1A adrenoreceptor (rat submaxillary gland) (Rattus norvegicus, UniProt P43140); assay: biochemical; type: binding; conditions: read-out: Radioligand Binding (Ki, nM) 1A (Rat)
T4 sequence (P43140 1-466): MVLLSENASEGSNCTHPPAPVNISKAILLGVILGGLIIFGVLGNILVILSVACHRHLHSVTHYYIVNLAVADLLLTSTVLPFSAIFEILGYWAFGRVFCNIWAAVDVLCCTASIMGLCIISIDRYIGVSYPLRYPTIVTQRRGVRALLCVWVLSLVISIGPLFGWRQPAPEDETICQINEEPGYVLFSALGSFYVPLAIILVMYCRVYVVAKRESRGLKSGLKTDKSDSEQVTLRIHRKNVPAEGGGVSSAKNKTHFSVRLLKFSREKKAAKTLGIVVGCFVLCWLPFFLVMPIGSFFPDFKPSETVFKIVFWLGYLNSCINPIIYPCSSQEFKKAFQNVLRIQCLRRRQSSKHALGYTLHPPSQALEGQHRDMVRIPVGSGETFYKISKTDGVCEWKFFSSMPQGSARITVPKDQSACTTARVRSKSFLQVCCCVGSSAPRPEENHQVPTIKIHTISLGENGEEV
Summary of the method: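 Radioligand binding to α-1A sites in membrane homogenates of rat submaxillary gland, run after Greengrass and Bremner. Bound radioactivity counted by liquid scintillation.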

α-1b adrenoreceptor [5] = target: T5, α-1b adrenoreceptor (Mesocricetus auratus, UniProt P18841); assay: biochemical; type: binding, hamster; conditions: read-out: Radioligand Binding (Ki, nM) 1b (Hamster)
T5 sequence (P18841 1-515): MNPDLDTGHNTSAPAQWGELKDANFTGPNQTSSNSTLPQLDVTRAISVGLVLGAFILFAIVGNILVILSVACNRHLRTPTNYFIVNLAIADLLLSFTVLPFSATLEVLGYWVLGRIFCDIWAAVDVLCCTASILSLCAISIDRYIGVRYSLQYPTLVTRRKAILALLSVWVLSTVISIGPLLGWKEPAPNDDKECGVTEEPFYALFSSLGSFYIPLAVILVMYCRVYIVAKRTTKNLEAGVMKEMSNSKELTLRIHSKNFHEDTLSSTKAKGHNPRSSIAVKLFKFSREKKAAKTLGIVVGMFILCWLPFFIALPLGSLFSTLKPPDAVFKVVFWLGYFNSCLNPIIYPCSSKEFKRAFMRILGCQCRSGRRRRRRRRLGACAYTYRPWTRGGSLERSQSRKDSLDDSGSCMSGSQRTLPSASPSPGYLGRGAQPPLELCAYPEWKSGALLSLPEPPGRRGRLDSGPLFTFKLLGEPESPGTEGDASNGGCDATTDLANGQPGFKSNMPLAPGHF
Summary of the method: as §1

[6] = [3H]-prazosin radioligand, cloned receptor in LTK cell membranes

Ki (α-1a adrenoreceptor [1]; [6]): 3.31 nM
In Vitro Characterization (pA2) Rat Spleen (α-1B adrenoreceptor [2]): 8.60
Ki (α-1d adrenoreceptor; [6]): 0.689 nM
Compound: COc1cc2nc(N3CCN(C(=O)C4CCCO4)CC3)nc(N)c2cc1OC (stereo not drawn) [Terazosin, terazosin, reference compound]
In Vitro Characterization (pA2) Rat Aorta (α-1 Adrenoceptors): 8.65

Compound: COc1cccc2c1[C@@H]1CCN(CCCCn3c(=O)[nH]c4c(sc5cccnc54)c3=O)C[C@H]1CO2 (racemic) [Example 88, 3-[4-((±)-trans-10-Methoxy-1,3,4,4a,5,10b-hexahydro-2H-[1]-benzopyrano[3,4-c]pyrido-3-yl)butyl]-pyrido[2',3':4,5]thieno[3,2-d]pyrimidine-2,4(1H,3H)-dione hydrochloride]
In Vitro Characterization (pA2) Dog Prostate (α-1A adrenoreceptor [3]): 8.09

Compound: COc1cccc2c1[C@@H]1CN(CCCCn3c(=O)[nH]c4c(sc5nc(Cl)ccc54)c3=O)C[C@@H]1CO2 [Example 32, 3-[4-((3aR,9bR)-cis-9-Methoxy-1,2,3,3a,4,9b-hexahydro-[1]-benzopyrano[3,4-c]pyrrol-2-yl)butyl]-7-chloro-pyrido[3',2':4,5]thieno[3,2-d]pyrimidine-2,4(1H,3H)-dione hydrochloride]
In Vitro Characterization (pA2) Rat Aorta (α-1 Adrenoceptors): 9.31
Ki (α-1d adrenoreceptor; [6]): 0.86 nM

Compound: COc1cccc2c1[C@@H]1CN(CCCCn3c(=O)[nH]c4c(sc5ccc(-c6ccccc6)nc54)c3=O)C[C@H]1CO2 [Example 52, 3-[4-((3aS,9bR)-trans-9-Methoxy-1,2,3,3a,4,9b-hexahydro-[1]-benzopyrano[3,4-c]pyrrol-2-yl)butyl]-8-phenyl-pyrido[2',3':4,5]thieno[3,2-d]pyrimidine-2,4(1H,3H)-dione dihydrochloride]
Ki ([4]; [3H]-prazosin radioligand, rat submaxillary gland membranes): 3.98 nM
Ki (α-1a adrenoreceptor [1]; [6]): 1.08 nM
Ki (α-1d adrenoreceptor; [6]): 0.597 nM
Ki (α-1b adrenoreceptor [5]; [6]): 13.6 nM

Compound: COc1ccc2c(c1)[C@@H]1CN(CCCCn3c(=O)[nH]c4c(sc5ncccc54)c3=O)C[C@@H]1CO2 (racemic) [Example 75, 3-[4-((±)-cis-8-Methoxy-1,2,3,3a,4,9b-hexahydro-[1]-benzopyrano[3,4-c]pyrrol-2-yl)butyl]-pyrido[3',2':4,5]thieno[3,2-d]pyrimidine-2,4(1H,3H)-dione dihydrochloride]
Ki [4]: 5.73 nM
Ki (α-1a adrenoreceptor [1]): 1.89 nM
Ki (α-1d adrenoreceptor): 18.3 nM
Ki (α-1b adrenoreceptor [5]): 52.1 nM
